Results published in patent US20100273816A1, “Quinazoline Compounds” (priority 2007, published 2010).

How the values were obtained:
[1] = molecular target: T1, human LXRβ (Homo sapiens, UniProt P55055); experiment: Ligand-binding test procedure for human LXRβ (3H T0901317 tracer, flash plates); conditions: biotinylated hLXRβ from E. coli extract, +4° C. over night, read-out: hLXRB binding assay Mean IC50
T1 construct: biotin (biotinylated); made in house; host or cells: E. coli (crude extract)
T1 sequence (P55055 1-460): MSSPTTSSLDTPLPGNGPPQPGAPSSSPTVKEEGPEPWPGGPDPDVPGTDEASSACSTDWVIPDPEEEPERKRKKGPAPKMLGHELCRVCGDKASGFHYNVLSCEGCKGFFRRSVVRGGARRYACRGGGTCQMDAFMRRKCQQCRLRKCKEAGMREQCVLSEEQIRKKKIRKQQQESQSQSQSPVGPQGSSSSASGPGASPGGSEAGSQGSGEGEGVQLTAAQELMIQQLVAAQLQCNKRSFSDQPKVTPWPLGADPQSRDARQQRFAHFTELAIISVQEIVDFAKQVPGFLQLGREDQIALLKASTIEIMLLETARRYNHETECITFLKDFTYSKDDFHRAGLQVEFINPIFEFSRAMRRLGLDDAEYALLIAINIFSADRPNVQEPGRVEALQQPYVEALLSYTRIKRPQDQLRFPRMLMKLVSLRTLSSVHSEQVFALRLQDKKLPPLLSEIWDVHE
Protocol: I. Ligand-Binding Test Procedure for Human LXRβ.
(§1) Buffer: 100 mM KCl, 100 mM TRIS (pH 7.4 at +4° C.), 8.6% glycerol, 0.1 mM PMSF*, 2 mM MTG*, 0.2% CHAPS (* not used in wash buffer)
Receptor source: E. coli extract from cells expressing biotinylated hLXRβ. Extract was made in a similar buffer as above, but with 50 mM TRIS.
(§2) Washed streptavidin and coated flash plates with wash buffer.
(§3) Diluted receptor extract to give Bmax ˜4000 cpm and add to the wells.
(§4) Wrapped the plates in aluminum foil and stored them at +4° C. over night.
(§5) Made a dilution series in DMSO of the test ligands.
(§6) Made a 5 nM solution of the radioactive tracer in buffer.
Mixed 250 μl diluted tracer with 50 of the test ligand from each concentration of the dilution series.
(§7) Washed the receptor-coated flash plates.
(§8) Added 200 μl per well of the ligand/radiolabel mixture to the receptor-coated flash plates.
(§9) Wrapped the plates in aluminum foil and incubate at +4° C. over night.
(§10) Aspirated wells, and wash the flashed plates. Sealed the plate.
(§11) Measured the remaining radioactivity in the plate.

[2] = molecular target: T2, human LXRα (Homo sapiens, UniProt Q13133); experiment: Ligand-binding test procedure for human LXRα (3H T0901317 tracer, flash plates); conditions: biotinylated hLXRα from E. coli extract, +4° C. over night, read-out: hLXRa binding assay Mean IC50
T2 construct: biotin (biotinylated); made in house; host or cells: E. coli (crude extract)
T2 sequence (Q13133 1-447): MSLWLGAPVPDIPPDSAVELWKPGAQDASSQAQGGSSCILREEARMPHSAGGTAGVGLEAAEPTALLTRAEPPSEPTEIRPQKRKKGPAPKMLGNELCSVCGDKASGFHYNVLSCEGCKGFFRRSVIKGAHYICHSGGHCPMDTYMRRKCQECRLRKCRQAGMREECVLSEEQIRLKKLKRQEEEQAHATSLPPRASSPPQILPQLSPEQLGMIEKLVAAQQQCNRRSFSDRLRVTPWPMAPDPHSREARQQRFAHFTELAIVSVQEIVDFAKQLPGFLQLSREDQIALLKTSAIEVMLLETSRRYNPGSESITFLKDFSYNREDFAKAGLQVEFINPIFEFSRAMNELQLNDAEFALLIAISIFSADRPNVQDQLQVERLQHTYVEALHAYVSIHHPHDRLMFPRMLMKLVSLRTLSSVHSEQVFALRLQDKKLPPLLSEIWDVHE
Protocol: II. Ligand-Binding Test Procedure for Human LXRα.
as §1
Receptor source: E. coli extract from cells expressing biotinylated hLXRα. Extract was made in a similar buffer as above, but with 50 mM TRIS.
as §2, §3, §4, §5, §6
Mixed 250 μl diluted tracer with 5 μl of the test ligand from each concentration of the dilution series.
as §7, §8, §9, §10, §11

Structure (SMILES) | IC50 [1] [nM] | IC50 [2] [nM]
CS(=O)(=O)c1cccc(Oc2cccc(-c3ncnc4c(C(F)(F)F)cccc34)c2)c1 [Example 4, 4-{3-[3-(Methylsulfonyl)phenoxy]phenyl}-8-(trifluoromethyl)quinazoline] | 151 | 1820
CC(C)S(=O)(=O)c1cccc(Oc2cccc(-c3ncnc4c(C(F)(F)F)cccc34)c2)c1 [Example 6, 4-{3-[3-(isopropylsulfonyl)phenoxy]phenyl}-8-(trifluoromethyl)quinazoline] | 63 | 1020
COCCCS(=O)(=O)c1cccc(Oc2cccc(-c3ncnc4c(C(F)(F)F)cccc34)c2)c1 [Example 7, 4-(3-{3-[(3-methoxypropyl)sulfonyl]phenoxy}phenyl)-8-(trifluoromethyl)quinazoline] | 651 | 4990
CCCS(=O)(=O)c1cc(Cl)cc(Oc2cccc(-c3ncnc4c(C(F)(F)F)cccc34)c2)c1 [Example 8, 4-{3-[3-chloro-5-(propylsulfonyl)phenoxy]phenyl}-8-(trifluoromethyl)quinazoline] | > 1000 | > 1000
O=S(=O)(CCCO)c1cc(Cl)cc(Oc2cccc(-c3ncnc4c(C(F)(F)F)cccc34)c2)c1 [Example 9, 3-[(3-chloro-5-{3-[8-(trifluoromethyl)quinazolin-4-yl]phenoxy}phenyl)sulfonyl]propan-1-ol] | – | > 1000
CS(=O)(=O)c1ccc(Oc2cccc(-c3ncnc4c(C(F)(F)F)cccc34)c2)cc1 [Example 10, 4-{3-[4-(methylsulfonyl)phenoxy]phenyl}-8-(trifluoromethyl)quinazoline] | 3620 | 26100
CCS(=O)(=O)c1ccc(Oc2cccc(-c3ncnc4c(C(F)(F)F)cccc34)c2)cc1 [Example 11, 4-{3-[4-(ethylsulfonyl)phenoxy]phenyl}-8-(trifluoromethyl)quinazoline] | 2240 | > 1000
CCCS(=O)(=O)c1ccc(Oc2cccc(-c3ncnc4c(C(F)(F)F)cccc34)c2)cc1 [Example 12, 4-{3-[4-(propylsulfonyl)phenoxy]phenyl}-8-(trifluoromethyl)quinazoline] | > 1000 | > 1000
O=S(=O)(CCCO)c1cccc(Oc2cccc(-c3ncnc4c(C(F)(F)F)cccc34)c2)c1 [Example 18, 3-[(3-{3-[8-(trifluoromethyl)quinazolin-4-yl]phenoxy}phenyl)sulfonyl]propan-1-ol] | 412 | 3540
Cc1nc(-c2cccc(Oc3cccc(S(C)(=O)=O)c3)c2)c2cccc(C(F)(F)F)c2n1 [Example 21, 2-methyl-4-{3-[3-(methylsulfonyl)phenoxy]phenyl}-8-(trifluoromethyl)quinazoline] | 433 | 13800
CS(=O)(=O)c1cccc(Oc2cccc(-c3ncnc4c(Cl)cccc34)c2)c1 [Example 24, 8-chloro-4-{3-[3-(methylsulfonyl)phenoxy]phenyl}quinazoline] | 295 | 5320
CS(=O)(=O)c1cccc(-c2cccc(-c3ncnc4c(C(F)(F)F)cccc34)c2)c1 [Example 27, 4-(3′-Methanesulfonyl-biphenyl-3-yl)-8-trifluoromethyl-quinazoline] | 194 | 1670
Cc1nc(-c2cccc(-c3ccc(S(C)(=O)=O)cc3)c2)c2cccc(C(F)(F)F)c2n1 [Example 38, 4-(4′-Methanesulfonyl-biphenyl-3-0)-2-methyl-8-trifluoromethyl-quinazoline] | 6270 | –
CS(=O)(=O)c1cccc(-c2cccc(-c3nc(-c4ccccc4)nc4c(C(F)(F)F)cccc34)c2)c1 [Example 43, 4-[3′-(methylsulfonyl)biphenyl-3-yl]-2-phenyl-8-(trifluoromethyl)quinazoline] | 309 | 20300
CC(C)(C(=O)O)c1ccc(COc2cccc(-c3ncnc4c(C(F)(F)F)cccc34)c2)cc1 [Example 44, 2-methyl-2-[4-({3-[8-(trifluoromethyl)quinazolin-4-yl]phenoxy}methyl)phenyl]propanoic acid] | > 1000 | > 1000
O=C(O)Cc1ccc(COc2cccc(-c3ncnc4c(C(F)(F)F)cccc34)c2)cc1 [Example 45, [4-({3-[8-(trifluoromethyl)quinazolin-4-yl]phenoxy}methyl)phenyl]acetic acid] | 5290 | > 1000

Next, values leading:

IC50 [1] [nM] | IC50 [2] [nM] | Structure (SMILES)
101 | 1570 | CCS(=O)(=O)c1cccc(Oc2cccc(-c3ncnc4c(C(F)(F)F)cccc34)c2)c1 [Example 5, 4-{3-[3-(ethylsulfonyl)phenoxy]phenyl}-8-(trifluoromethyl)quinazoline]
1540 | > 1000 | CC(C)S(=O)(=O)c1ccc(Oc2cccc(-c3ncnc4c(C(F)(F)F)cccc34)c2)cc1 [Example 13, 4-{3-[4-(isopropylsulfonyl)phenoxy]phenyl}-8-(trifluoromethyl)quinazoline]
449 | 4420 | CCCS(=O)(=O)c1cccc(Oc2cccc(-c3ncnc4c(C(F)(F)F)cccc34)c2)c1 [Example 15, 4-{3-[3-(propylsulfonyl)phenoxy]phenyl}-8-(trifluoromethyl)quinazoline]
> 1000 | > 1000 | CC(C)CS(=O)(=O)c1cccc(Oc2cccc(-c3ncnc4c(C(F)(F)F)cccc34)c2)c1 [Example 16, 4-{3-[3-(isobutylsulfonyl)phenoxy]phenyl}-8-(trifluoromethyl)quinazoline]
> 1000 | > 1000 | CC(C)CCS(=O)(=O)c1cccc(Oc2cccc(-c3ncnc4c(C(F)(F)F)cccc34)c2)c1 [Example 17, 4-(3-{3-[(3-methylbutyl)sulfonyl]phenoxy}phenyl)-8-(trifluoromethyl)quinazoline]
19100 | 64800 | O=S(=O)(CCCO)c1ccc(Oc2cccc(-c3ncnc4c(C(F)(F)F)cccc34)c2)cc1 [Example 19, 3-[(4-{3-[8-(trifluoromethyl)quinazolin-4-yl]phenoxy}phenyl)sulfonyl]propan-1-ol]
398 | 6330 | CS(=O)(=O)c1cc(F)cc(Oc2cccc(-c3ncnc4c(C(F)(F)F)cccc34)c2)c1 [Example 20, 4-{3-[3-fluoro-5-(methylsulfonyl)phenoxy]phenyl}-8-(trifluoromethyl)quinazoline]
285 | 2830 | CS(=O)(=O)c1cccc(COc2cccc(-c3ncnc4c(C(F)(F)F)cccc34)c2)c1 [Example 25, 4-(3-{[3-(methylsulfonyl)benzyl]oxy}phenyl)-8-(trifluoromethyl)quinazoline]
69 | 706 | Cc1nc(-c2cccc(-c3cccc(S(C)(=O)=O)c3)c2)c2cccc(C(F)(F)F)c2n1 [Example 37, 4-(3′-Methanesulfonyl-biphenyl-3-yl)-2-methyl-8-trifluoromethyl-quinazoline]
97 | 1140 | CCc1nc(-c2cccc(-c3cccc(S(C)(=O)=O)c3)c2)c2cccc(C(F)(F)F)c2n1 [Example 40, 2-ethyl-4-[3′-(methylsulfonyl)biphenyl-3-yl]-8-(trifluoromethyl)quinazoline]
175 | > 1000 | CCCc1nc(-c2cccc(-c3cccc(S(C)(=O)=O)c3)c2)c2cccc(C(F)(F)F)c2n1 [Example 41, 4-[3′-(methylsulfonyl)biphenyl-3-yl]-2-propyl-8-(trifluoromethyl)quinazoline]
452 | 3250 | CC(C)c1nc(-c2cccc(-c3cccc(S(C)(=O)=O)c3)c2)c2cccc(C(F)(F)F)c2n1 [Example 42, 2-isopropyl-4-[3′-(methylsulfonyl)biphenyl-3-yl]-8-(trifluoromethyl)quinazoline]
